From patent US11930815B1, “3,3′-(piperazine-1,4-diyl)bis(1-(naphthalen-2-yloxy)propan-2-ol) as insecticidal agent” (priority 2023, dated 2024)
≈ marks a conversion by molar mass, not a printed value. Like-named read-outs stand apart in the source and are kept apart here.

Key:
[1] = tested on: 4th instars of larvae of Spodoptera littoralis; assay: Insecticidal bioassay screening, castor leaf dip, 4th instar larvae; type: in vivo; settings: for Toxic ratio: 4th larvae, fenoxycarb's LC50/the compound's LC50 × 100
Procedure: (§1) Five concentrations (200, 100, 50, 25, 12.5 ppm) were designed for this synthetic compound and the reference fenoxycarb compound as the dynamic ingredients based on ppm via diluting the commercial formulation.
(§2) In this experiment, castor leaves are immersed in each of the previously prepared concentrations of the components for 10 seconds and then left to dry for 60 minutes. Larvae of the second and fourth instars of each checked strain are prepared with treated leaves in gauze-covered glass containers for 72 hrs. An untreated control is made in which leaves are dipped in triton x-100 and distilled water only. Then the preserved leaves were removed & fresh, untreated leaves were provided for 72 hours. Three replicates (10 larvae each) were checked for each concentration. Daily inspection was carried out for all treatments and mortality percentages were recorded 3 days (72 hours) after treatment. The average mortality percentage was corrected employing Abbott's formula. The corrected mortality rate for each of the previously synthesized compounds is statistically calculated according to Finney (1970). Through this rate, the corresponding concentration test lines (LDP lines) are assessed. Fifty and ninety percent mortality are determined, and the regression values for the checked products were previously evaluated.

[2] = tested on: 2nd instars of larvae of Spodoptera littoralis; assay: Insecticidal bioassay screening, castor leaf dip, 2nd instar larvae; type: in vivo; settings: for Toxic ratio: 2nd larvae, fenoxycarb's LC50/the compound's LC50 × 100
Procedure: as §1, §2

[3] = Spodoptera littoralis, foliar, 72 h

Row | SMILES | LC50 ([1]; in vivo) | LC50 ([2]; 2nd instars of larvae of Spodoptera littoralis, after 72 hours of treatment) | Toxic ratio ([1]; 72 h) | LC50 [1, 3] [µg/mL] | Toxic ratio ([2]; 72 h) | LC50 ([2]; Spodoptera littoralis, foliar, 2nd larvae of S. littoralis, after 72 h of treatment, treated castor leaves, read-out: LC50) [µg/mL] | LC50 ([2]; foliar, against Spodoptera littoralis under laboratory conditions, instar not stated, read-out: LC50) [µg/mL] | activity against Spodoptera littoralis ([2]; verbal summary of Table 1, compared with fenoxycarb) | LC50 [2, 3] [µg/mL]
1 | OC(COc1ccc2ccccc2c1)CN1CCN(CC(O)COc2ccc3ccccc3c2)CC1 (centres unmarked) [3,3′-(piperazine-1,4-diyl)bis(1-(naphthalen-2-yloxy)propan-2-ol)] | about 86.98 ppm | about 42.05 ppm | – | – | – | – | – | – | –
2 | OC(COc1ccc2ccccc2c1)CN1CCN(CC(O)COc2ccc3ccccc3c2)CC1 (centres unmarked) [Compound 9, 3,3′-(piperazine-1,4-diyl)bis(1-(naphthalen-2-yloxy)propan-2-ol)] | – | – | 49.7 | 87 (≈ 179 µM) | 6.51 | 42 (≈ 86.4 µM) | 42 (≈ 86.4 µM) | active | –
3 | CCOC(=O)NCCOc1ccc(Oc2ccccc2)cc1 [Fenoxycarb, reference compound] | – | – | 100 | – | 100 | – | – | – | 2.73 (≈ 9.06 µM)
